Source: US8754093B2, “Co-crystal of etravirine and nicotinamide” (Janssen R&D Ireland, priority 2009, dated 2014)

Experiments:
[1] = cited from earlier work
[2] = traditional formulations; cited from earlier work
[3] = Dissolution experiments with TMC125/nicotinamide co-crystal (10 mM HCl with 1% TPGS, HPLC); type: physicochemical; settings: Simulated Gastric Fluid with 1% TPGS, 37° C., 500 rpm
Method: This dissolution experiment was focused on looking at the difference between the cocrystal and TMC125 free base both neat and mixed with HPMC E5 Cps.
A: 100 mg co-crystal: 100 mg HPMC E5 Cps (powder blend)
B: 100 mg co-crystal (powder)
C: 78 mg free base: 100 mg HPMC E5 Cps (powder blend)
D: 78 mg free base (powder)
Powders were dispensed to 20 mL vials and in 20 mL of 10 mM HCl with 1% TPGS (d-alpha-tocopheryl polyethylene glycol 1000 succinate) was added to each vial. Each […], filtered through a 0.45 μm nylon filter via centrifugation and the solute was diluted in half and analyzed by HPLC for the concentration of TMC125.

For `Cc1cc(C#N)cc(C)c1Oc1nc(Nc2ccc(C#N)cc2)nc(N)c1Br` [Neat TMC125 FB, 4-[[6-amino-5-bromo-2-[(4-cyanophenyl)amino]-4-pyrimidinyl]oxy]-3,5-dimethylbenzonitrile], the “solubility in aqueous media” value [1] is listed as “very insoluble”, the bioavailability [2] is listed as “very low” and the “Concentration of TMC125” value ([3]; time 5 min) is listed as 22.36 µg/mL. For the same molecule, the “Concentration of TMC125” value ([3]; time 10 min) was 52.04 µg/mL, the “Concentration of TMC125” value ([3]; time 20 min) was 57.03 µg/mL and the “Concentration of TMC125” value ([3]; time 30 min) was 58.96 µg/mL. For the same molecule, the “Concentration of TMC125” value ([3]; time 45 min) was 59.83 µg/mL and the “Concentration of TMC125” value ([3]; time 60 min) was 60.10 µg/mL.
